Eight compounds from patent publication US6762171B1, “Fatty acid CoA thioester inhibitory substance of PPARα and PPARγ” (Kyorin Pharmaceutical Co, Ltd., priority 2002, dated 2004) can be followed below.

Assay [1] addresses T1, human-type PPAR α ligand-binding domain (Homo sapiens, UniProt Q07869).
T1 construct: made in house; host or cells: Escherichia coli
T1 sequence (Q07869 239-466 limits assumed): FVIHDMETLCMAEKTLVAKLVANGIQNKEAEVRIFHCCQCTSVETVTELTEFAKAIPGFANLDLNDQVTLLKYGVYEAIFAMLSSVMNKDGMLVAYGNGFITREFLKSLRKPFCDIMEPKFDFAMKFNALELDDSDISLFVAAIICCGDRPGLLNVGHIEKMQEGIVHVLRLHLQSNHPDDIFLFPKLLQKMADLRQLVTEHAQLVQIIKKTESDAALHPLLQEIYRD
Briefly: Competition binding with [3H]KRP-297 to 6×His-hPPARα ligand-binding domain. The conditions noted are these: for Binding to the ligand-binding domain of PPARα: competition with 100 nM [3H]KRP-297, test concentration not given; for Binding to PPAR α ligand-binding domain, in words: competition with [3H]KRP-297. The source says:
(§1) Proteins (6×His-hPPARs LBD) tagged 6-copy histidine to the side of N-termini in the ligand-binding domains of human-type PPAR α and PPAR γ were expressed in Escherichia coli, respectively, and purified through a nickel column.

For assay [2], the target named is T2, human-type PPAR γ ligand-binding domain (Homo sapiens, UniProt P37231).
T2 construct: made in house; host or cells: Escherichia coli
T2 sequence (P37231 238-503 limits assumed): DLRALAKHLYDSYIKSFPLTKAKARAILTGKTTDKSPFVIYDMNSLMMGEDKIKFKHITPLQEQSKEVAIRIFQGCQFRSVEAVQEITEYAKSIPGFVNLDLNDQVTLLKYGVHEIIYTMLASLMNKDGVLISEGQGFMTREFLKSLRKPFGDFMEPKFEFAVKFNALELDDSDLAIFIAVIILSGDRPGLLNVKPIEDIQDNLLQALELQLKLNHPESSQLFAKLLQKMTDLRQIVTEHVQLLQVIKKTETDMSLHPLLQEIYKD
Nature of the assay: Competition binding with [3H]KRP-297 to 6×His-hPPARγ ligand-binding domain. The conditions noted are these: for Binding to the ligand-binding domain of PPARγ: competition with 100 nM [3H]KRP-297, test concentration not given; for Binding to PPAR γ ligand-binding domain, in words: competition with [3H]KRP-297.
Excerpt: as §1

Assay [3] deals with T3, Human PPARγ ligand-binding domain and SRC-1 (Homo sapiens, UniProt P37231).
T3 construct: made in house; host or cells: Escherichia coli (PPAR LBD); in vitro translation, TNT, Promega (SRC-1)
T3 sequence (P37231 238-503 limits assumed): T2 sequence (P37231 238-503 limits assumed)
Nature of the assay: Conjugate formation between PPARγ LBD and [35S]SRC-1. Type of assay: biochemical. The procedure: (§2) [35S]methionine-labeled form of SRC-1 containing 2-copy of LXXLL motif was prepared in vitro (TNTR, Promega Co., Madison, Wis.). 6×His-hPPARs LBD protein was incubated for 60 minutes at 4° C. in 50 mM Tris-HCl buffer (pH 7.4) containing 50 mM KCl and 1 mM dithiothreitol and 0.1% bovine serum albumin in the presence or absence of testing compound. Thereafter, […] of anti-6×His antibody (QIAGEN Co., Germany) were added and the mixture was incubated for 60 minutes at 4° C. Successively, […] of protein G Sepharose (Falmasia Biotech Co., Sweden) were added and the mixture was incubated for 60 minutes at 4° C. After washed thrice by centrifugation, protein G Sepharose was dissolved with […] of SDS-sample buffer, 20% SDS-PAGE, and then [35S]SRC-1 was detected by means of autography.

Assay [4] concerns the target T4, Human PPARα ligand-binding domain and SRC-1 (Homo sapiens, UniProt Q07869).
T4 construct: made in house; host or cells: Escherichia coli (PPAR LBD); in vitro translation, TNT, Promega (SRC-1)
T4 sequence (Q07869 239-466 limits assumed): T1 sequence (Q07869 239-466 limits assumed)
Nature of the assay: Conjugate formation between PPARα LBD and [35S]SRC-1. Format: biochemical. How it is done: as §2

Each structure is given as a SMILES string.

With `CCCCC/C=C\C/C=C\C=C\[C@@H](O)C/C=C\CCCC(=O)O` [8(S)-Hydroxyeicosatetraenoic acid, 8(S)-hydroxyeicosatetraenoic acid, reference compound], the “Binding to the ligand-binding domain of PPARα” value (from here on “Binding … of PPARα”) in assay [1] came out at 99%.
As to `CCCCC/C=C/C=C1/C(=O)C=C[C@@H]1C/C=C\CCCC(=O)O` [15-Deoxy-Δ^12,14-prostaglandin J2, 15-deoxy-Δ^12,14-prostaglandin J2, reference compound], the “Binding to the ligand-binding domain of PPARγ” value (“Binding … of PPARγ” for short) in assay [2] came out at 93%.
Regarding `CCCCC/C=C\C/C=C\C/C=C\C/C=C\CCCC(=O)SCCNC(=O)CCNC(=O)[C@H](O)C(C)(C)COP(=O)(O)OP(=O)(O)OC[C@H]1O[C@@H](n2cnc3c(N)ncnc32)[C@H](O)[C@@H]1OP(=O)(O)O` [Arachidonoyl CoA], in assay [2], the “Binding … of PPARγ” value is reported as 46% and the “Binding to PPAR γ ligand-binding domain, in words” value is “ligand”. Also, in assay [1], the “Binding … of PPARα” value worked out at 54% and the “Binding to PPAR α ligand-binding domain, in words” value is “ligand”.
For the compound `CCCCC/C=C\C/C=C\CCCCCCCC(=O)SCCNC(=O)CCNC(=O)[C@H](O)C(C)(C)COP(=O)(O)OP(=O)(O)OC[C@H]1O[C@@H](n2cnc3c(N)ncnc32)[C@H](O)[C@@H]1OP(=O)(O)O` [Linoleoyl CoA], the “Conjugate formation between PPARγ LBD and SRC-1” value in assay [3] (BRL-49653 30 μM, Linoleoyl CoA 3 μM (0 μM: 4.8 ± 0.7)) turned out to be 4.9 ± 0.6; in assay [3] (BRL-49653 30 μM, Linoleoyl CoA 10 μM (0 μM: 4.8 ± 0.7)), 4.8 ± 1.9; in assay [3] (BRL-49653 30 μM, Linoleoyl CoA 30 μM (0 μM: 4.8 ± 0.7)), 1.5 ± 0.5; in assay [3] (BRL-49653 30 μM, Linoleoyl CoA 100 μM (0 μM: 4.8 ± 0.7)), 1.0 ± 0.1; in assay [3] (linoleic acid 30 μM, Linoleoyl CoA 3 μM (0 μM: 4.5 ± 0.7)), 4.2 ± 0.3; in assay [3] (linoleic acid 30 μM, Linoleoyl CoA 10 μM (0 μM: 4.5 ± 0.7)), 2.7 ± 1.1. In addition, the “Conjugate formation between PPARγ LBD and SRC-1” value in assay [3] (linoleic acid 30 μM, Linoleoyl CoA 30 μM (0 μM: 4.5 ± 0.7)) is 1.9 ± 0.8; in assay [3] (linoleic acid 30 μM, Linoleoyl CoA 100 μM (0 μM: 4.5 ± 0.7)), 1.3 ± 0.4. Further, the “Inhibition of conjugate formation of SRC-1 with PPAR γ, in words” value in assay [3] (conjugate formation due to ligands BRL-49,653 and linoleic acid) was “dose-dependently inhibited”. The “Conjugate formation between PPARα LBD and SRC-1” value in assay [4] (KRP-297 30 μM, Linoleoyl CoA 3 μM (0 μM: 6.1 ± 1.7)) is reported as 5.5 ± 1.5; in assay [4] (KRP-297 30 μM, Linoleoyl CoA 10 μM (0 μM: 6.1 ± 1.7)) it was 4.4 ± 0.8; in assay [4] (KRP-297 30 μM, Linoleoyl CoA 30 μM (0 μM: 6.1 ± 1.7)), 1.4 ± 0.1; in assay [4] (KRP-297 30 μM, Linoleoyl CoA 100 μM (0 μM: 6.1 ± 1.7)) it was 0.9 ± 0.3; in assay [4] (linoleic acid 30 μM, Linoleoyl CoA 3 μM (0 μM: 5.3 ± 1.9)), 6.1 ± 2.2; in assay [4] (linoleic acid 30 μM, Linoleoyl CoA 10 μM (0 μM: 5.3 ± 1.9)) it was 2.4 ± 0.8. Moreover, the “Conjugate formation between PPARα LBD and SRC-1” value in assay [4] (linoleic acid 30 μM, Linoleoyl CoA 30 μM (0 μM: 5.3 ± 1.9)) turned out to be 1.2 ± 0.4; in assay [4] (linoleic acid 30 μM, Linoleoyl CoA 100 μM (0 μM: 5.3 ± 1.9)) it was 0.9 ± 0.3. Also, the “Inhibition of conjugate formation of SRC-1 with PPAR α, in words” value in assay [4] (conjugate formation due to ligands KRP-297 and linoleic acid) was “dose-dependently inhibited”. In addition, the “Binding … of PPARγ” value in assay [2] is reported as 59%. The “Binding to PPAR γ ligand-binding domain, in words” value in assay [2] is given as “ligand”. The “Binding … of PPARα” value in assay [1] is reported as 92%. Besides, in assay [1], the “Binding to PPAR α ligand-binding domain, in words” value is “ligand”.
Take `CCCCCCCCCCCCCC(=O)SCCNC(=O)CCNC(=O)[C@H](O)C(C)(C)COP(=O)(O)OP(=O)(O)OC[C@H]1O[C@@H](n2cnc3c(N)ncnc32)[C@H](O)[C@@H]1OP(=O)(O)O` [Myristoyl CoA]: in assay [2], the “Binding … of PPARγ” value stood at 45% and the “Binding to PPAR γ ligand-binding domain, in words” value is reported as “ligand”. Besides, in assay [1], the “Binding … of PPARα” value is listed as 70% and the “Binding to PPAR α ligand-binding domain, in words” value is given as “ligand”.
Regarding `CCCCCCCC/C=C\CCCCCCCC(=O)SCCNC(=O)CCNC(=O)[C@H](O)C(C)(C)COP(=O)(O)OP(=O)(O)OC[C@H]1O[C@@H](n2cnc3c(N)ncnc32)[C@H](O)[C@@H]1OP(=O)(O)O` [Oleoyl CoA], in assay [2], the “Binding … of PPARγ” value was 52% and the “Binding to PPAR γ ligand-binding domain, in words” value was “ligand”. Besides, in assay [1], the “Binding … of PPARα” value came out at 95% and the “Binding to PPAR α ligand-binding domain, in words” value was “ligand”.
As for `CCCCCCCCCCCCCCCC(=O)SCCNC(=O)CCNC(=O)[C@H](O)C(C)(C)COP(=O)(O)OP(=O)(O)OC[C@H]1O[C@@H](n2cnc3c(N)ncnc32)[C@H](O)[C@@H]1OP(=O)(O)O` [Palmitoyl CoA], in assay [2], the “Binding … of PPARγ” value came out at 72% and the “Binding to PPAR γ ligand-binding domain, in words” value is reported as “ligand”. Further, in assay [1], the “Binding … of PPARα” value is on record as 83% and the “Binding to PPAR α ligand-binding domain, in words” value is “ligand”.
With `CCCCCCCCCCCCCCCCCC(=O)SCCNC(=O)CCNC(=O)[C@H](O)C(C)(C)COP(=O)(O)OP(=O)(O)OC[C@H]1O[C@@H](n2cnc3c(N)ncnc32)[C@H](O)[C@@H]1OP(=O)(O)O` [Stearoyl CoA], in assay [2], the “Binding … of PPARγ” value worked out at 89% and the “Binding to PPAR γ ligand-binding domain, in words” value is recorded as “ligand”. In assay [1], the “Binding … of PPARα” value is on record as 94% and the “Binding to PPAR α ligand-binding domain, in words” value is reported as “ligand”.
